The target of the assay is T1, RORc ligand binding domain (Homo sapiens, UniProt P51449).
T1 construct: host or cells: E. coli
T1 sequence (P51449 269-508 limits assumed): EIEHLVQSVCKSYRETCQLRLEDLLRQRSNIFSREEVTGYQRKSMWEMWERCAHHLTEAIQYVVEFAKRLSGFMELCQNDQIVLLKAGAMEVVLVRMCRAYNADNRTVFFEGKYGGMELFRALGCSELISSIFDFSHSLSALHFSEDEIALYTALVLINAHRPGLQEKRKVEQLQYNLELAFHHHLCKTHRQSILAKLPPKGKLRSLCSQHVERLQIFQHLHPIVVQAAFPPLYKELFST
The assay is described as follows: In Vitro RORc Ligand Binding Assay. Conditions: radioligand 25-[3H]hydroxycholesterol 6 nM; 0.6 ug/mL RORc receptor; 3 h at 25° C.; read-out: IC50 values (micromolar) for RORc affinity. The protocol:
This assay was used to determine a compound's potency in inhibiting activity of RORc by determining, Kiapp, IC50, or percent inhibition values.
On day of the assay, 100 uL of 0.05% CHAPS (in deionized H2O) was added to all wells of the GFB Unifilter plate and allowed soak for 1 h. A wash buffer of 50 mM HEPES (pH 7.4), 150 mM NaCl, and 5 mM MgCl2 was prepared to wash the filter plate. To prepare an assay buffer, BSA was added to the wash buffer to reach 0.01% and DTT was added to reach 1 mM.
The 20× compound stocks were diluted in DMSO with Assay Buffer 4-fold to reach 5× the final test concentration in 25% DMSO (10 uL compound+30 uL Assay Buffer). Solutions were mixed by aspiration several times with a pipette set on 50 uL volume. For the assay, 10 uL of 5× compound stock solutions in 25% DMSO were added to the assay plate in duplicate.
For two point screening, 10 mM stock compound solutions were diluted in DMSO to obtain 200 uM (20× the high test concentration) and then diluted 10-fold further to reach 20 uM (20× the low test concentration). The 20× stocks were diluted 4-fold with Assay Buffer (10 uL compound+30 uL Assay Buffer) to reach 5× the test concentrations (50 uM and 5 uM) and 10 uL were added to two assay plates for the duplicate wells. With each concentration tested on 2 plates, each set of 80 compounds used 4 assay plates (1 uM and 10 uM, with n=2).
For 25-hydroxycholesterol in 25% DMSO/75% Assay Buffer; 10 uL per well was used for NSB samples. Wells for Total Binding and No Receptor sample determination contained 10 uL of 25% DMSO/75% Assay Buffer per well.
Radioligand (25-[^3H]hydroxycholesterol) Preparation
Added 20 uL to all wells to reach 6 nM final in the assay.
Stock receptor solution was diluted in assay buffer to obtain 1.5 ug/mL in Assay Buffer. 20 uL was added to all wells. For No R samples, 20 uL Assay Buffer was substituted for receptor solution.
Assay plates were 96-well polypropylene V-bottom plates. 10 uL of 5× compound in 25% DMSO/75% Assay Buffer was added to Test wells. 10 uL of 25% DMSO/75% Assay Buffer was added to Total Binding or No Receptor wells. 10 uL of 5 uM 25-hydroxycholesterol in 25% DMSO/75% Assay Buffer was added to NSB wells. […] 20 uL of 1.5 ug/mL RORc receptor was added to wells (or 40 uL Assay Buffer to No R wells). Following addition to the wells, the plates were incubated 3 h at 25° C.
Using a Packard Filtermate Harvester, the filter plates were washed 4 times following transfer of the incubated samples. Plates were dry-filtered completely (2 h at 50° C. or overnight at room temperature). 50 uL Microscint 0 was added to all wells and read on Topcount protocol Inverted.
Final concentrations were as follows: 50 mM HEPES buffer (pH 7.4); 150 mM NaCl; 1 mM DTT; 5 mM MgCl2; 0.01% BSA; 5% DMSO; 0.6 ug/mL RORc receptor; 6 nM 25-[^3H]hydroxycholesterol. For NSB wells, 1 uM 25-hydroxycholesterol was also present.
What is called IC50 is the concentration needed to halve the response being measured. As to `CC(C)CN(Cc1ccc(-c2cccnc2)s1)S(=O)(=O)Cc1ccccc1` [Compound 37, N-Isobutyl-C-phenyl-N-(5-pyridin-3-yl-thiophen-2-ylmethyl)-methanesulfonamide], the IC50 is 1.7 µM.
As to `CC(C)CN(Cc1ccc(-c2ccncc2)s1)S(=O)(=O)Cc1ccccc1` [Compound 38, N-Isobutyl-C-phenyl-N-(5-pyridin-4-yl-thiophen-2-ylmethyl)-methanesulfonamide], the IC50 was found to be 0.614 µM.
For `CC(C)CN(Cc1ccc(-c2cccc(C(N)=O)c2)s1)S(=O)(=O)Cc1ccccc1` [Compound 41, 3-{5-[(Isobutyl-phenylmethanesulfonyl-amino)-methyl]-thiophen-2-yl}-benzamide] the value was 1.4 µM.
For `CC(C)CN(Cc1ccc(-c2cccc(C(=O)N(C)C)c2)s1)S(=O)(=O)Cc1ccccc1` [Compound 43, 3-{5-[(Isobutyl-phenylmethanesulfonyl-amino)-methyl]-thiophen-2-yl}-N,N-dimethyl-benzamide] the value was 2.4 µM; for `CC(C)CN(Cc1ccc(-c2cncc(S(C)(=O)=O)c2)s1)S(=O)(=O)Cc1ccccc1` [Compound 44, N-Isobutyl-N-[5-(5-methanesulfonyl-pyridin-3-yl)-thiophen-2-ylmethyl]-C-phenyl-methanesulfonamide], 2.5 µM.
In the case of `CC(C)CN(Cc1ccc(-c2cnn(C)c2)s1)S(=O)(=O)Cc1ccccc1` [Compound 45, N-Isobutyl-N-[5-(1-methyl-1H-pyrazol-4-yl)-thiophen-2-ylmethyl]-C-phenyl-methanesulfonamide], the IC50 was 0.612 µM.
For `CC(C)CN(Cc1ccc(-c2ccnc(N)c2)s1)S(=O)(=O)Cc1ccccc1` [Compound 46, N-[5-(2-Amino-pyridin-4-yl)-thiophen-2-ylmethyl]-N-isobutyl-C-phenyl-methanesulfonamide] the value was 1.2 µM; for `Cc1n[nH]c(C)c1-c1ccc(CN(CC(C)C)S(=O)(=O)Cc2ccccc2)s1` [Compound 49, N-[5-(3,5-Dimethyl-1H-pyrazol-4-yl)-thiophen-2-ylmethyl]-N-isobutyl-C-phenyl-methanesulfonamide], 0.377 µM.
As for `CC(C)CN(Cc1ccc(-c2cncc(C#N)c2)s1)S(=O)(=O)Cc1ccccc1` [Compound 50, N-[5-(5-Cyano-pyridin-3-yl)-thiophen-2-ylmethyl]-N-isobutyl-C-phenyl-methanesulfonamide], the IC50 came to 3.1 µM.
For `CNC(=O)c1ccc(-c2ccc(CN(CC(C)C)S(=O)(=O)Cc3ccccc3)s2)cn1` [Compound 51, 5-{5-[(Isobutyl-phenylmethanesulfonyl-amino)-methyl]-thiophen-2-yl}-pyridine-2-carboxylic acid methylamide] the value was 4.4 µM.
Consider `CC(=O)Nc1ccc(-c2ccc(CN(CC(C)C)S(=O)(=O)Cc3ccccc3)s2)cn1` [Compound 52, N-(5-{5-[(Isobutyl-phenylmethanesulfonyl-amino)-methyl]-thiophen-2-yl}-pyridin-2-yl)-acetamide], for which the IC50 turned out to be 3 µM.
Take `CC(C)N(Cc1ccc(-c2ccc(S(C)(=O)=O)cc2)s1)S(=O)(=O)Cc1ccccc1` [Compound 56, N-Isopropyl-N-[5-(4-methanesulfonyl-phenyl)-thiophen-2-ylmethyl]-C-phenyl-methanesulfonamide]: the IC50 is 0.195 µM.
With `COCCN(Cc1ccc(-c2ccc(S(C)(=O)=O)cc2)s1)S(=O)(=O)Cc1ccccc1` [Compound 57, N-[5-(4-Methanesulfonyl-phenyl)-thiophen-2-ylmethyl]-N-(2-methoxy-ethyl)-C-phenyl-methanesulfonamide], the IC50 is 5.1 µM.
As to `CCN(Cc1ccc(-c2ccc(S(C)(=O)=O)cc2)s1)S(=O)(=O)Cc1ccccc1` [Compound 58, N-Ethyl-N-[5-(4-methanesulfonyl-phenyl)-thiophen-2-ylmethyl]-C-phenyl-methanesulfonamide], the IC50 was 3.1 µM.
As to `CC(C)CN(Cc1cc(-c2ccc(S(C)(=O)=O)cc2)cs1)S(=O)(=O)Cc1ccccc1` [Compound 59, N-Isobutyl-N-[4-(4-methanesulfonyl-phenyl)-thiophen-2-ylmethyl]-C-phenyl-methanesulfonamide], the IC50 turned out to be 0.278 µM.
Consider `CC(C)CN(Cc1ccc(-c2cccc(S(C)(=O)=O)c2)s1)S(=O)(=O)C1CCCC1` [Compound 60, Cyclopentanesulfonic acid isobutyl-[5-(3-methanesulfonyl-phenyl)-thiophen-2-ylmethyl]-amide], for which the IC50 is 1.8 µM.
Turning to `Cc1nn(C)c(C)c1S(=O)(=O)N(Cc1ccc(-c2cccc(S(C)(=O)=O)c2)s1)CC(C)C` [Compound 61, 1,3,5-Trimethyl-1H-pyrazole-4-sulfonic acid isobutyl-[5-(3-methanesulfonyl-phenyl)-thiophen-2-ylmethyl]-amide], the IC50 worked out at 3.6 µM.
Take `CC(C)CN(Cc1ccc(-c2cccc(S(C)(=O)=O)c2)s1)S(=O)(=O)c1cccnc1` [Compound 62, Pyridine-3-sulfonic acid isobutyl-[5-(3-methanesulfonyl-phenyl)-thiophen-2-ylmethyl]-amide]: the IC50 stood at 4.2 µM.
On to `CC(C)CN(Cc1ccc(-c2cc(F)c(CO)c(S(C)(=O)=O)c2)s1)S(=O)(=O)Cc1ccccc1` [Compound 63, N-((5-(3-fluoro-4-(hydroxymethyl)-5-(methylsulfonyl)phenyl)thiophen-2-yl)methyl)-N-isobutyl-1-phenylmethanesulfonamide], for which the IC50 is 5 µM.
`CC(C)CN(Cc1ncc(-c2ccc(S(C)(=O)=O)c(F)c2)s1)S(=O)(=O)Cc1ccccc1` [Compound 64, N-((5-(3-fluoro-4-(methylsulfonyl)phenyl)thiazol-2-yl)methyl)-N-isobutyl-1-phenylmethanesulfonamide]: the IC50 is 2 µM.
For the compound `CC(C)CN(Cc1ccc(-c2ccc(S(C)(=O)=O)cc2)cn1)S(=O)(=O)Cc1ccccc1` [Compound 65, N-isobutyl-N-((5-(4-(methylsulfonyl)phenyl)pyridin-2-yl)methyl)-1-phenylmethanesulfonamide], the IC50 amounted to 2 µM.
For `CC(C)CN(Cc1ccc(-c2ccc(S(C)(=O)=O)cc2)nc1)S(=O)(=O)Cc1ccccc1` [Compound 66, N-isobutyl-N-((6-(4-(methylsulfonyl)phenyl)pyridin-3-yl)methyl)-1-phenylmethanesulfonamide], the IC50 came out at 0.77 µM.
With `CC(C)CN(Cc1cccc(-c2cccc(S(C)(=O)=O)c2)c1)S(=O)(=O)Cc1ccccc1` [Compound 67, N-isobutyl-N-((3′-(methylsulfonyl)-[1,1′-biphenyl]-3-yl)methyl)-1-phenylmethanesulfonamide], the IC50 turned out to be 3 µM.
For `CC(C)CN(Cc1csc(-c2ccc(S(C)(=O)=O)cc2)c1)S(=O)(=O)Cc1ccccc1` [Compound 68, N-isobutyl-N-((5-(4-(methylsulfonyl)phenyl)thiophen-3-yl)methyl)-1-phenylmethanesulfonamide] the value was 0.32 µM.
Regarding `CC(C)CN(Cc1ccc(-c2ccc(S(C)(=O)=O)cc2)c(C#N)c1)S(=O)(=O)Cc1ccccc1` [Compound 69, N-((2-cyano-4′-(methylsulfonyl)-[1,1′-biphenyl]-4-yl)methyl)-N-isobutyl-1-phenylmethanesulfonamide], the IC50 is 0.074 µM.

The values are drawn from US20150105429A1, “BENZYL SULFONAMIDE DERIVATIVES AS RORC MODULATORS” (Genentech, Inc., priority 2011, published 2015).
